Activity calls are given as the source filed them. The calls are words filed in the database; no cut-off is given here.
Columns and labels:
Mus musculus [1] = assay: In vivo inhibition of MAO-A in mouse xenografted with mouse GL26 assessed as decrease in MAO activity in tumor at 10 mg/kg by radiometric analysis; format: functional, organism-based
[2] = Toxicity in mouse bearing intracranial tumor assessed as median survival time at 5 mg/kg, ip in presence of SAHA for 10 days (Rvb=13.8 days); format: organism-based; conditions: in vivo, 240 h, time 10 day
U-251 [3] = assay: cells; format: functional, cell-based; conditions: Homo sapiens, U-251, 48 h
Description: Cytotoxicity against human TMZ-sensitive U251 cells assessed as inhibition of cell growth incubated for 48 hrs by MTT assay

U-251 [4] = assay: cells; format: functional, cell-based; conditions: Homo sapiens, U-251, 48 h; remark: listed apart in the source
Description: Cytotoxicity against human TMZ-resistant U251 cells assessed as inhibition of cell growth incubated for 48 hrs by MTT assay

[5] = molecular target: T1, Amine oxidase [flavin-containing] B (Mus musculus, UniProt Q8BW75); assay: Inhibition of wild type MAO-B in mouse brain using methyl ester luciferin as substrate at 1 uM pre-incubated for 15 mins followed by substrate addition measured after 1 hr by MAO-Glo assay relative to control; format: tissue-based
T1 sequence (Q8BW75 whole entry): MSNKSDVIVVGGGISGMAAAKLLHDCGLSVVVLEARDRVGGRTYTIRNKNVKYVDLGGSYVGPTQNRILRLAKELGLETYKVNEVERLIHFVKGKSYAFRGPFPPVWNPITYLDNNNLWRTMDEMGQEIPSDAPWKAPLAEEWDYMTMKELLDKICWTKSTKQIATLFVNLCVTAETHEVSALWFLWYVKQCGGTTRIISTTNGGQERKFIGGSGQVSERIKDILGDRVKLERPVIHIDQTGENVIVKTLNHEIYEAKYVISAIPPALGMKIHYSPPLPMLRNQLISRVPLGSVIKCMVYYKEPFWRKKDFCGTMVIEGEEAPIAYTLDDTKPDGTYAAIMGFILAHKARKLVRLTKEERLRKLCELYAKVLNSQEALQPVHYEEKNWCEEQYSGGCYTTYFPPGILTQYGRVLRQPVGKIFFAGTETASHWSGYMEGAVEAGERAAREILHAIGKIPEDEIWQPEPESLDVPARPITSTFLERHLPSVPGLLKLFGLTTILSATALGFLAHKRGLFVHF

[6] = Toxicity in mouse bearing intracranial tumor assessed as last day of survival at 10 mg/kg, ip in presence of SAHA for 10 days (Rvb=16 days); format: organism-based; conditions: in vivo, 240 h, time 10 day
[7] = Toxicity in mouse bearing intracranial tumor assessed as last day of survival at 10 mg/kg, ip treatment started at 7 dpi (Rvb=19 days); format: organism-based; conditions: in vivo, 456 h
[8] = Toxicity in mouse bearing intracranial tumor assessed as last day of survival at 10 mg/kg,ip for 10 days (Rvb=16 days); format: organism-based; conditions: in vivo, 240 h, time 10 day
[9] = Toxicity in mouse bearing intracranial tumor assessed as median survival time at 10 mg/kg, ip for 10 days (Rvb= 13.8 days); format: organism-based; conditions: in vivo, 240 h, time 10 day
[10] = Toxicity in mouse bearing intracranial tumor assessed as assessed as median survival time at 10 mg/kg, ip treatment started at 7 dpi (Rvb=18.25 days); format: organism-based; conditions: in vivo, 438 h
[11] = Cytotoxicity against mouse GL26 cells assessed as inhibition of cell growth incubated for 48 hrs by MTT assay; format: functional, cell-based; conditions: GL26, 48 h
[12] = Toxicity in mouse bearing intracranial tumor assessed as assessed as […] at 10 mg/kg, ip for 14 days treatment started at 5 days post-infection (Rvb=14 days); format: organism-based; conditions: in vivo, 336 h, time 14 day
[13] = Toxicity in mouse bearing intracranial tumor assessed as median survival time at 10 mg/kg, ip in presence of SAHA for 10 days (Rvb=13.8 days); format: organism-based; conditions: in vivo, 240 h, time 10 day
[14] = Toxicity in mouse bearing intracranial tumor assessed as assessed as median survival time at 10 mg/kg, ip for 14 days treatment started at 5 days post-infection (Rvb=12.8 days); format: organism-based; conditions: in vivo, 336 h, time 14 day
[15] = Toxicity in mouse bearing intracranial tumor assessed as last day of survival at 5 mg/kg, ip in presence of SAHA for 10 days (Rvb=16 days); format: organism-based; conditions: in vivo, 240 h, time 10 day
Mus musculus [16] = assay: In vivo inhibition of MAO-A in mouse xenografted with mouse GL26 cells as decrease in MAO activity in brain at 10 mg/kg by radiometric analysis; format: functional, organism-based

C#CCN(C)CCCOc1ccc(Cl)cc1Cl [CLORGILINE]
Activity (Mus musculus [1]): Active
MST [2]: 13.8 days
IC50 (U-251 [3]): 175 µM
IC50 (U-251 [4]): 136 µM
inhibition at 1 µM [5]: < 25%
Survival [6]: 18 days
Survival [7]: 19 days
Survival [8]: 17 days
Survival [9]: 13.8 days
MST [10]: 17.25 days
IC50 [11]: 169 µM
MST [12]: 11.75 days
MST [13]: 14.4 days
Survival [14]: 15 days
Survival [15]: 14 days
Activity (Mus musculus [16]): Active

— ChEMBL document CHEMBL5154693, “N-Methylpropargylamine-Conjugated Hydroxamic Acids as Dual Inhibitors of Monoamine Oxidase A and Histone Deacetylase for Glioma Treatment” (J Med Chem, 2022)
